Reference: US7998989B2, “2-Imino-1,3-thiazoline-based compounds and T-type calcium channel inhibitors containing the same” (Korea Institute of Science and Technology, priority 2007, dated 2011)

Columns and labels:
[1] = biological target: T1, α1G T-type calcium channel (Homo sapiens, UniProt O43497); experiment: Assay for % inhibiting activity against T-type calcium channel using FDSS6000 (fluo-3 calcium imaging, KCl activation); assay type: cell-based; settings: HEK293, 10 μM; HEK293 cells stably expressing α1G T-type calcium channel and Kir2.1; compounds of the examples; read-out: FDSS (% inhibition)/10uM
T1 construct: host or cells: HEK293
Description: In the present invention, in order to examine an efficient inhibitor against the T-type calcium channel, a primary assay for T-type calcium channel inhibiting activity was conducted by a high-efficient assay using FDSS6000, wherein mammal HEK293 cell lines (originated from human kidney carcinoma cells) that specifically express α1G of the T-type calcium channel was used for primary assay. Through the primary assay, compounds that show meaningful inhibition effects were selected. The selected compounds were used in a second assay for T-type calcium channel inhibiting activity using an electrophysiological whole cell patch clamp method, wherein mammal HEK293 cell lines (originated from human kidney carcinoma cells) that specifically express α1G of the T-type calcium channel was used for the second assay. Mibefradil, which had been developed as a T-type calcium channel inhibitor, was used as a reference.
At 12-24 hours before being used for this assay, cells of HEK293 cell line (α1G cell line: KCTC 10519BP, Korean Collection for Type Cultures), which stably express α1G T-type calcium channel and Kir2.1, were sub-cultured in a poly-L-lysine treated 96-well plate with the density of 4×10^4 per well using a 96-well cell dispenser (Titertek). On the day of assay, the 96-well plate to which the cells were attached was washed three times with HEPES buffer solution (150 mM of NaCl, 5 mM of KCl, 1 mM of MgCl2, 2 mM of CaCl2, 10 mM of HEPES, 10 mM of glucose; pH 7.4) using a 96-well plate automatic washing device (Bio Tek), then reacted with HEPES buffer solution containing 5 μM fluo-3/AM and 0.001% Pluronic F-127 at room temperature for 1 hour, to label with fluorescent dye, and then further washed two times with HEPES buffer solution.
Thereafter, at 10 minutes before the measurement using device FDSS6000, washing with HEPES buffer solution containing 10 mM CaCl2 was conducted once more, and the final volume was adjusted to 81 μl. Besides the above 96-well plate containing the cells, two additional drug 96-well plates were provided, wherein the 96-well plates contained an inhibiting drug and KCl (final concentration: 75 mM) for activating the T-type calcium channel, respectively. Since most of cell-based HTS devices are equipped with a liquid application system for injection of drug, but have no liquid sucking system, the inhibiting drug to be tested and KCl were respectively provided at a five-times higher concentration in 10 mM CaCl2 HEPES buffer solution at the amount of 27 μl, diluted by five-times at the final cell plate volume of 135 μl, and then used in this test. The concrete method of measurement using FDSS6000 was as follows. After recording the reference value of 20 seconds, the change of intracellular Ca^2+ concentration that was induced by treatment of the inhibiting drug to be tested for 75 seconds followed by administration of KCl was measured, wherein the percentage (%) inhibition effect of the test drug, through estimating the area of ratio value of 340/380 in the control without treatment of the test drug, was 100%. As a reference drug, 10 μM mibefradil was used.
For accurate calcium imaging, the light source of 4 xenon lamps in FDSS6000 were radiated to selectively expose the cells to the excitation wavelength (340 nm and 380 nm) by a computer-controlled filter wheel. Data was obtained at intervals of 1.23 seconds. The emitter fluorescence light inflowed through a long-pass filter was obtained as an average 340/380 ratio value for each well in the 96-wells by using a CCD camera and a digital fluorescence analyzer in FDSS6000. All image data and analyses were obtained by using a FDSS6000-exclusive program from Hamamatsu Photonics.
The obtained results are shown in Table 2 (the results from the compounds according to the examples of the present invention) and Table 3 (the results from the compounds according to the comparative example where R6 is a phenyl group) [FDSS (% inhibition) 10 μM].

T1 sequence (O43497 whole entry): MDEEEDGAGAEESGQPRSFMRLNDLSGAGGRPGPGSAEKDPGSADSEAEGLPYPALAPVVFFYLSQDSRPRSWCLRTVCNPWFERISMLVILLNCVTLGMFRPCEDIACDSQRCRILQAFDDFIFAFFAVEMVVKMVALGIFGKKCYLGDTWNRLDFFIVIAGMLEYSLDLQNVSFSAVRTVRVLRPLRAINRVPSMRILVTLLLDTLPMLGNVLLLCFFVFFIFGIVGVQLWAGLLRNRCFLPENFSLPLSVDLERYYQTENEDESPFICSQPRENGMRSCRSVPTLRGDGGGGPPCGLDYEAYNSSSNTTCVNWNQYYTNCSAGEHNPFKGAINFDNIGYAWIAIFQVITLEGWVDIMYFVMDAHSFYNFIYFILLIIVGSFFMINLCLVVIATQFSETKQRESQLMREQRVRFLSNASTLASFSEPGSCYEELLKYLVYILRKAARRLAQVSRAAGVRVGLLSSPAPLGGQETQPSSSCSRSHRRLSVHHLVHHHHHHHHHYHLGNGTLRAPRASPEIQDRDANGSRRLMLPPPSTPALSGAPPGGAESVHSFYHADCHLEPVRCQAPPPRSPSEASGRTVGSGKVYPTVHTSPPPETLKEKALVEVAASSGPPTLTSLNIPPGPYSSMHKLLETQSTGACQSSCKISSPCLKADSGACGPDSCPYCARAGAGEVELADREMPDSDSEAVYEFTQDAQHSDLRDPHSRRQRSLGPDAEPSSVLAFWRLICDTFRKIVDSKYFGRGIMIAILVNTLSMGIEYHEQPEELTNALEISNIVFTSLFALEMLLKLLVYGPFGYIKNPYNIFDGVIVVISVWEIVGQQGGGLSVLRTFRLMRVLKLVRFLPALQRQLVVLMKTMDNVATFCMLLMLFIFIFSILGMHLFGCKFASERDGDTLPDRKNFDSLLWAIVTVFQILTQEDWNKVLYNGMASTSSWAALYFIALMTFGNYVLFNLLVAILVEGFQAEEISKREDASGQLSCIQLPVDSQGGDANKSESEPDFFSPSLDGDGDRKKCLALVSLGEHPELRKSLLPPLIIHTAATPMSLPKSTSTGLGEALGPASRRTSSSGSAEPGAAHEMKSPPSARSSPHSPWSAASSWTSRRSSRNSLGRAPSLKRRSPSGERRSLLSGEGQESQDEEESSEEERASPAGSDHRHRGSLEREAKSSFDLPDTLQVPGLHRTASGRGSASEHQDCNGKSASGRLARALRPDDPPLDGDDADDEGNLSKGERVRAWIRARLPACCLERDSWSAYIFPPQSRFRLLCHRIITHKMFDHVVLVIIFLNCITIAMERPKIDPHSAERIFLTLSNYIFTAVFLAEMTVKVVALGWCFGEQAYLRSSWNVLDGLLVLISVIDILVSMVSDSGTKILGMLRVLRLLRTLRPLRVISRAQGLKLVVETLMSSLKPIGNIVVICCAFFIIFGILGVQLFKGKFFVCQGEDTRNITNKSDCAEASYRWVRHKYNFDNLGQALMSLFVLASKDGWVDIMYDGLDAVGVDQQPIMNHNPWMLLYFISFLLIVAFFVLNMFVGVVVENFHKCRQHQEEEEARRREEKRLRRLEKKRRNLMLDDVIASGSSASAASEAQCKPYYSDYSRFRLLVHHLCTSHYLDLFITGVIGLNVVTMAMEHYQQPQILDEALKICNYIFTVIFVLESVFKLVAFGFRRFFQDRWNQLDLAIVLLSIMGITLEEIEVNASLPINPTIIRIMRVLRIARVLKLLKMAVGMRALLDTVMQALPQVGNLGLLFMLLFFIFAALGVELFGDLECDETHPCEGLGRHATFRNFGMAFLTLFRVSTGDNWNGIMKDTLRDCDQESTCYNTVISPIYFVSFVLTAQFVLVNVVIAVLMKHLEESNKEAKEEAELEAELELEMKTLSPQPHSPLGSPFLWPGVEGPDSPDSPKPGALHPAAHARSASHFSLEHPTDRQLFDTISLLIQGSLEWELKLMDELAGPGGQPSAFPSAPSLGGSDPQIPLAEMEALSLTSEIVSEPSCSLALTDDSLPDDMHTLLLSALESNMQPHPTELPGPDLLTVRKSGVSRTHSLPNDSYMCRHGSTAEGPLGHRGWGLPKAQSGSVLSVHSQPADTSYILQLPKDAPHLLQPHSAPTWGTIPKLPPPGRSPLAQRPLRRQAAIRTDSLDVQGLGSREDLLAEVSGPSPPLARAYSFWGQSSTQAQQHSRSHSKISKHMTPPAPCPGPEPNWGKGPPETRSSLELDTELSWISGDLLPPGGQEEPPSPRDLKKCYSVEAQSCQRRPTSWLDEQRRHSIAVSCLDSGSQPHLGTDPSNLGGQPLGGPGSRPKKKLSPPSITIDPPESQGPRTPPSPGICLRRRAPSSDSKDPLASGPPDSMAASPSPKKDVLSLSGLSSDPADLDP

SMILES	inhibition at 10 µM [1]	melting point
CN1C(=NC2CCCCC2)SCC1CC(=O)Nc1ccc(C(C)(C)C)cc1.Cl (centres unmarked) [KHG24073, (2-cyclohexylimino-3-methyl-1,3-thiazolidine-4-yl)-N-(4-t-butylphenyl)-acetamide hydrochloride]	57.3%	234 to 235.5 °C
Cc1ccccc1CNC(=O)CC1CSC(=NC2CCCCC2)N1C.Cl (centres unmarked) [KHG24082, (2-cyclohexylimino-3-methyl-1,3-thiazolidine-4-yl)-N-(2-methylbenzyl)-acetamide hydrochloride]	37.4%	220 to 221 °C
CCOC(=O)CCOc1cccc(NC(=O)CC2CSC(=NC3CCCCC3)N2C)c1.Cl (centres unmarked) [KHG24085, (2-cyclohexylimino-3-methyl-1,3-thiazolidine-4-yl)-N-(3-ethoxycarbonylethoxyphenyl)-acetamide hydrochloride]	52.6%	241 to 242 °C
COc1ccc(NC(=O)CC2CSC(=NC3CCCCC3)N2C)cc1OC.Cl (centres unmarked) [KHG24090, (2-cyclohexylimino-3-methyl-1,3-thiazolidine-4-yl)-N-(3,4-dimethoxyphenyl)-acetamide hydrochloride]	32.1%	233 to 234 °C
CN1C(=NC2CCCC2)SCC1CC(=O)Nc1ccc(Oc2ccccc2)cc1.Cl (centres unmarked) [KHG24099, (2-cyclopentylimino-3-methyl-1,3-thiazolidine-4-yl)-N-(4-phenoxyphenyl)-acetamide hydrochloride]	58.2%	230 to 230.5 °C
CN1C(=NC2CCCCC2)SCC1CC(=O)Nc1cccc([N+](=O)[O-])c1.Cl (centres unmarked) [KHG24108, (2-cyclohexylimino-3-methyl-1,3-thiazolidine-4-yl)-N-(3-nitrophenyl)-acetamide hydrochloride]	44.4%	207 °C
CCCCc1ccc(NC(=O)CC2CSC(=NC3CCCC3)N2C)cc1.Cl (centres unmarked) [KHG24116, (2-cyclopentylimino-3-methyl-1,3-thiazolidine-4-yl)-N-(4-n-butylphenyl)-acetamide hydrochloride]	65.4%	216 to 217.5 °C
CN1C(=NC2CC2)SCC1CC(=O)Nc1ccc(Oc2ccccc2)cc1.Cl (centres unmarked) [KHG24141, (2-cyclopropylimino-3-methyl-1,3-thiazolidine-4-yl)-N-(4-phenoxyphenyl)-acetamide hydrochloride]	35.7%	219.5 to 220 °C
CCCCc1ccc(NC(=O)CC2CSC(=NC3CC3)N2C)cc1.Cl (centres unmarked) [KHG24152, (2-cyclopropylimino-3-methyl-1,3-thiazolidine-4-yl)-N-(4-n-butylphenyl)-acetamide hydrochloride]	33.9%	227.5 to 228.5 °C
CN1C(=NC2CCCC2)SCC1CC(=O)NCc1ccc(Cl)cc1.Cl (centres unmarked) [KHG24157, (2-cyclopentylimino-3-methyl-1,3-thiazolidine-4-yl)-N-(4-chlorobenzyl)-acetamide hydrochloride]	36.7%	180 to 182 °C

Continued, values first:

inhibition at 10 µM [1]	melting point	SMILES
39.9%	156 to 158 °C	COc1cccc(NC(=O)CC2CSC(=NC3CCCCC3)N2C)c1.Cl (centres unmarked) [KHG24076, (2-cyclohexylimino-3-methyl-1,3-thiazolidine-4-yl)-N-(3-methoxyphenyl)-acetamide hydrochloride]
38.3%	206 to 208 °C	CN1C(=NC2CCCCC2)SCC1CC(=O)Nc1ccc(F)cc1F.Cl (centres unmarked) [KHG24081, (2-cyclohexylimino-3-methyl-1,3-thiazolidine-4-yl)-N-(2,4-difluorophenyl)-acetamide hydrochloride]
43.2%	215 to 216 °C	CN1C(=NC2CCCCC2)SCC1CC(=O)NCc1ccc(Cl)c(Cl)c1.Cl (centres unmarked) [KHG24088, (2-cyclohexylimino-3-methyl-1,3-thiazolidine-4-yl)-N-(3,4-dichlorobenzyl)-acetamide hydrochloride]
30.3%	210 to 212 °C	Cc1ccc(NC(=O)CC2CSC(=NC3CCCCC3)N2C)cc1F.Cl (centres unmarked) [KHG24091, (2-cyclohexylimino-3-methyl-1,3-thiazolidine-4-yl)-N-(3-fluoro-4-methylphenyl)-acetamide hydrochloride]
30.5%	209 to 210.5 °C	CN1C(=NC2CCCC2)SCC1CC(=O)Nc1ccc(F)cc1Cl.Cl (centres unmarked) [KHG24095, (2-cyclopentylimino-3-methyl-1,3-thiazolidine-4-yl)-N-(2-chloro-4-fluorophenyl)-acetamide hydrochloride]
50.5%	228 to 228.5 °C	CN1C(=NC2CCCC2)SCC1CC(=O)Nc1ccc(Br)cc1.Cl (centres unmarked) [KHG24098, (2-cyclopentylimino-3-methyl-1,3-thiazolidine-4-yl)-N-(4-bromophenyl)-acetamide hydrochloride]
60.8%	231 to 232.5 °C	CN1C(=NC2CCCC2)SCC1CC(=O)Nc1cc(Cl)cc(Cl)c1.Cl (centres unmarked) [KHG24100, (2-cyclopentylimino-3-methyl-1,3-thiazolidine-4-yl)-N-(3,5-dichlorophenyl)-acetamide hydrochloride]
45%	214 to 216 °C	CN1C(=NC2CCCC2)SCC1CC(=O)Nc1cc(Cl)ccc1F.Cl (centres unmarked) [KHG24103, (2-cyclopentylimino-3-methyl-1,3-thiazolidine-4-yl)-N-(5-chloro-2-fluorophenyl)-acetamide hydrochloride]
34.3%	234.5 to 236 °C	CN1C(=NC2CCCC2)SCC1CC(=O)Nc1cc([N+](=O)[O-])ccc1F.Cl (centres unmarked) [KHG24104, (2-cyclopentylimino-3-methyl-1,3-thiazolidine-4-yl)-N-(2-fluoro-5-nitrophenyl)-acetamide hydrochloride]
40.4%	228 to 230.5 °C	CN1C(=NC2CCCC2)SCC1CC(=O)Nc1ccc(Cl)cc1F.Cl (centres unmarked) [KHG24105, (2-cyclopentylimino-3-methyl-1,3-thiazolidine-4-yl)-N-(4-chloro-2-fluorophenyl)-acetamide hydrochloride]
49.4%	215 to 216 °C	CN1C(=NC2CCCC2)SCC1CC(=O)Nc1ccc(Cl)cc1.Cl (centres unmarked) [KHG24106, (2-cyclopentylimino-3-methyl-1,3-thiazolidine-4-yl)-N-(4-chlorophenyl)-acetamide hydrochloride]
48.4%	238 to 239.5 °C	CN1C(=NC2CCCCC2)SCC1CC(=O)Nc1cccc(F)c1.Cl (centres unmarked) [KHG24109, (2-cyclohexylimino-3-methyl-1,3-thiazolidine-4-yl)-N-(3-fluorophenyl)-acetamide hydrochloride]
67.7%	237 to 238 °C	Cc1cc(NC(=O)CC2CSC(=NC3CCCCC3)N2C)ccc1Br.Cl (centres unmarked) [KHG24111, (2-cyclohexylimino-3-methyl-1,3-thiazolidine-4-yl)-N-(4-bromo-3-methylphenyl)-acetamide hydrochloride]
30.3%	200 to 201 °C	CN1C(=NC2CCCCC2)SCC1CC(=O)NCc1ccc(F)cc1.Cl (centres unmarked) [KHG24112, (2-cyclohexylimino-3-methyl-1,3-thiazolidine-4-yl)-N-(4-fluorobenzyl)-acetamide hydrochloride]
49.9%	213 to 215.5 °C	CC(C)c1ccc(NC(=O)CC2CSC(=NC3CCCC3)N2C)cc1.Cl (centres unmarked) [KHG24115, (2-cyclopentylimino-3-methyl-1,3-thiazolidine-4-yl)-N-(4-isopropylphenyl)-acetamide hydrochloride]
